According to patent publication US11767323B2, “Tricyclic pyridone compounds as JAK2 V617F inhibitors” (Incyte Corporation, priority 2020, dated 2023):

Columns and labels:
[1] = biological target: pseudo-kinase domain (JH2, amino-acids 536-812) of human V617F mutant JAK2 (Homo sapiens (Human), UniProt O60674, F794H/V617F/W659A/W777A); assay: JAK2 LanthaScreen JH2-V617F Binding Assay; conditions: JAK2 JH2-V617F 0.26 nM, 50 nM tracer, 1 hour at 25° C.; read-out: JH2 BIND V617F IC50
Method: Example C. JAK2 LanthaScreen JH2-V617F Binding Assay
(§1) JAK2 JH2-V617F binding assay utilizes pseudo-kinase domain (JH2, amino-acids 536-812 with 3 surface mutations W659A, W777A, F794H) of human V617F mutant JAK2 expressed as C-terminal His-Avi-tagged, biotinylated protein in a baculovirus expression system (BPS Bioscience, Catalog #79498). The assay was conducted in black 384-well polystyrene plates in a final reaction volume of 20 μL. JAK2 JH2-V617F (0.26 nM) was incubated with compounds (100 nL serially diluted in DMSO) in the presence of 50 nM Fluorescent JAK2-JH2 Tracer (MedChem Express Catalog #HY-102055) and 0.25 nM Streptavidin-Tb cryptate (Cisbio Part #610SATLB) in assay buffer (50 mM Tris, pH=7.5, 10 mM MgCl2, 0.01% Brij-35, 0.1% BSA, 1 mM EGTA, 5% Glycerol and 5 mM DTT). Non-specific binding was accessed in the presence of 2 mM ATP. After incubation for 1 hour at 25° C., LanthaScreen signals were read on a PHERAstar FS plate reader (BMG LABTECH). Data was analyzed with IDBS XLfit and GraphPad Prism 5.0 software using a four parameter dose response curve to determine IC50 for each compound.

[2] = biological target: catalytic domain (JH1, amino acids 826-1132) of human JAK2 (Homo sapiens (Human), UniProt O60674); assay: JAK2 LanthaScreen JH1 Binding Assay; conditions: JAK2 JH1 1.5 nM, 50 nM tracer, 2 hours at 25° C.; read-out: JH1 BIND IC50
Sequence of catalytic domain (JH1, amino acids 826-1132) of human JAK2 (O60674 826-1132): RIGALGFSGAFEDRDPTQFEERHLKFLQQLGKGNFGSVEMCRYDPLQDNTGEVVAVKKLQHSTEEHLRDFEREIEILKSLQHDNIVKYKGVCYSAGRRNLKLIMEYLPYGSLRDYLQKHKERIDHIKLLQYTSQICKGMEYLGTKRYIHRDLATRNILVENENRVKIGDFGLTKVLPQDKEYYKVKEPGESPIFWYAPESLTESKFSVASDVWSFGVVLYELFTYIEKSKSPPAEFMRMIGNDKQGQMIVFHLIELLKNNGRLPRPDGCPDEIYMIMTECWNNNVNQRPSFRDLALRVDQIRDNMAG
Method: Example A. JAK2 LanthaScreen JH1 Binding Assay
JAK2 JH1 binding assay utilizes catalytic domain (JH1, amino acids 826-1132) of human JAK2 expressed as N-terminal FLAG-tagged, biotinylated protein in a baculovirus expression system (Carna Biosciences, Product #08-445-20N). The assay was conducted in black 384-well polystyrene plates in a final reaction volume of 20 μL. JAK2 JH1 (1.5 nM) was incubated with compounds (100 nL serially diluted in DMSO) in the presence of 50 nM Fluorescent JAK2-JH1 Tracer and 0.5 nM Streptavidin-Tb cryptate (Cisbio Part #610SATLB) in assay buffer (50 mM Tris, pH=7.5, 10 mM MgCl2, 0.01% Brij-35, 0.1% BSA, 1 mM EGTA, 5% Glycerol and 5 mM DTT). Non-specific binding was accessed in the presence of 2 mM ATP. After incubation for 2 hours at 25° C., LanthaScreen signals were read on a PHERAstar FS plate reader (BMG LABTECH). Data was analyzed with IDBS XLfit and GraphPad Prism 5.0 software using a four parameter dose response curve to determine IC50 for each compound.

[3] = biological target: catalytic domain (JH1, amino acids 808-1132) of human JAK2 (Homo sapiens (Human), UniProt O60674); assay: JAK2 HTRF Enzyme Activity Assay; format: biochemical; conditions: JAK2 0.015 nM, ATP (30 μM or 1 mM), 60 minutes at 25° C.
Sequence of catalytic domain (JH1, amino acids 808-1132) of human JAK2 (O60674 808-1132): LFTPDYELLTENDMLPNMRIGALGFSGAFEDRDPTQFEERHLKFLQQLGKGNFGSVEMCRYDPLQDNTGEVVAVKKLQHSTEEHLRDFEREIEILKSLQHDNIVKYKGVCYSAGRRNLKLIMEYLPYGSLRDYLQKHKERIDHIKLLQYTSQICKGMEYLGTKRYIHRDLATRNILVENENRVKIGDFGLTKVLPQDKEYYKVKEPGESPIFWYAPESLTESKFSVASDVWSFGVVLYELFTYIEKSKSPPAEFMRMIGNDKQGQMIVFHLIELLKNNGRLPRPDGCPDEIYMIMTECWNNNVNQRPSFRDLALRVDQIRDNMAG
Method: Example D. JAK2 HTRF Enzyme Activity Assay
JAK2 enzyme activity assays utilize catalytic domain (JH1, amino acids 808-1132) of human JAK2 expressed as N-terminal His-tagged protein in a baculovirus expression system (BPS Bioscience, Catalog #40450). The assays was conducted in black 384-well polystyrene plates in a final reaction volume of 20 μL. JAK2 (0.015 nM) was incubated with compounds (100 nL serially diluted in DMSO) in the presence of ATP (30 μM or 1 mM) and 500 nM Biotin-labeled EQEDEPEGDYFEWLE (SEQ ID NO.: 1) peptide (BioSource International, custom synthesis) in assay buffer (50 mM Tris, pH=7.5, 10 mM MgCl2, 0.01% Brij-35, 0.1% BSA, 1 mM EGTA, 5% Glycerol and 5 mM DTT) for 60 minutes at 25° C. The reactions were stopped by the addition of 10 μL of detection buffer (50 mM Tris, pH 7.8, 0.5 mg/mL BSA, 150 mM NaCl), supplemented with EDTA, LANCE Eu-W1024 anti-phosphotyrosine (PY20), (PerkinElmer, Catalog #AD0067) and Streptavidin SureLight APC (PerkinElmer Catalog #CR130-100), for a final concentration of 15 mM, 1.5 nM and 75 nM, respectively. HTRF signals were read after 30 minutes incubation at room temperature on a PHERAstar FS plate reader (BMG LAB TECH). Data was analyzed with IDBS XLfit and GraphPad Prism 5.0 software using a four parameter dose response curve to determine IC50 for each compound.

[4] = biological target: pseudo-kinase domain (JH2, amino-acids 536-812) of human Wild Type JAK2 (Homo sapiens (Human), UniProt O60674, F794H/W659A/W777A); assay: JAK2 LanthaScreen JH2-WT Binding Assay; conditions: JAK2 JH2-WT 0.145 nM, 50 nM tracer, 1 hour at 25° C.; read-out: JH2 BIND WT IC50
Sequence of pseudo-kinase domain (JH2, amino-acids 536-812) of human Wild Type JAK2 (O60674 536-812 W659A/W777A/F794H): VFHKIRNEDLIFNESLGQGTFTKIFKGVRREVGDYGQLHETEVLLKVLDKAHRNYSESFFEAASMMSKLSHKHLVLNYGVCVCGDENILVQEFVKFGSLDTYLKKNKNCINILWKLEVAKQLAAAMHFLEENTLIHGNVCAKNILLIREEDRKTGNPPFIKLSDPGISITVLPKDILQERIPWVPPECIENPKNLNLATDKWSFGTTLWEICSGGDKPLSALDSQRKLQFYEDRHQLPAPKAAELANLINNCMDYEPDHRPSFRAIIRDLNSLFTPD
Method: Example B. JAK2 LanthaScreen JH2-WT Binding Assay
as §1, with “JH2-WT” for “JH2-V617F”, “Wild Type” for “V617F mutant”, “#79463).” for “#79498).”, “JH2-WT (0.145” for “JH2-V617F (0.26”, “LAB TECH).” for “LABTECH).”

Sequence of pseudo-kinase domain (JH2, amino-acids 536-812) of human V617F mutant JAK2 (O60674 536-812 V617F/W659A/W777A/F794H): as the sequence (O60674 536-812 W659A/W777A/F794H) above, with V82F counted along it

SMILES	IC50 [1] [nM]	IC50 [2] [nM]	IC50 [3] [nM]	IC50 [4] [nM]
Cc1c(-c2ccc(C(=O)O)cc2)c(=O)[nH]c2cnc3[nH]c(-c4ccc(CN5CCC(S(C)(=O)=O)CC5)cc4)cc3c12 [Example 6, 4-(9-Methyl-2-(4-((4-(methylsulfonyl)piperidin-1-yl)methyl)phenyl)-7-oxo-6,7-dihydro-3H-pyrrolo[3,2-f][1,7]naphthyridin-8-yl)benzoic acid]	≤ 100	> 10000	> 10000	≤ 100
Cc1ccc(-c2c(C)c3c4cc(-c5ccc(CN6CCC(S(C)(=O)=O)CC6)cc5)[nH]c4ncc3n(C)c2=O)cc1 [Example 9, 6,9-Dimethyl-2-(4-((4-(methylsulfonyl)piperidin-1-yl)methyl)phenyl)-8-(p-tolyl)-3,6-dihydro-7H-pyrrolo[3,2-f][1,7]naphthyridin-7-one]	≤ 100	≤ 100	≤ 100	≤ 100
CCc1c(-c2ccc(C(=O)O)cc2)c(=O)n(C)c2cnc3[nH]c(-c4ccc(CN5CCC(S(C)(=O)=O)CC5)cc4)cc3c12 [Example 16, 4-(9-Ethyl-6-methyl-2-(4-((4-(methylsulfonyl)piperidin-1-yl)methyl)phenyl)-7-oxo-6,7-dihydro-3H-pyrrolo[3,2-f][1,7]naphthyridin-8-yl)benzoic acid]	≤ 100	100 to 500	100 to 500	≤ 100
Cc1c(-c2ccc(Cl)cc2)c(=O)n(C)c2cnc3[nH]c(-c4ccc(CN5CCC(S(C)(=O)=O)CC5)cc4)cc3c12 [Example 10, 8-(4-Chlorophenyl)-6,9-dimethyl-2-(4-((4-(methylsulfonyl)piperidin-1-yl)methyl)phenyl)-3,6-dihydro-7H-pyrrolo[3,2-f][1,7]naphthyridin-7-one]	≤ 100	100 to 500	100 to 500	≤ 100
Cn1c(=O)c(-c2ccc(C(=O)O)cc2)cc2c3cc(-c4ccc(CN5CCC(S(C)(=O)=O)CC5)cc4)[nH]c3ncc21 [Example 14, 4-(6-Methyl-2-(4-((4-(methylsulfonyl)piperidin-1-yl)methyl)phenyl)-7-oxo-6,7-dihydro-3H-pyrrolo[3,2-f][1,7]naphthyridin-8-yl)benzoic acid]	≤ 100	100 to 500	100 to 500	≤ 100
Cc1c(-c2ccc(-n3cnnn3)cc2)c(=O)[nH]c2cnc3[nH]c(-c4ccc(CN5CCC(S(C)(=O)=O)CC5)cc4)cc3c12 [Example 7, 8-(4-(1H-Tetrazol-1-yl)phenyl)-9-methyl-2-(4-((4-(methylsulfonyl)piperidin-1-yl)methyl)phenyl)-3,6-dihydro-7H-pyrrolo[3,2-f][1,7]naphthyridin-7-one]	1000 to 10000	1000 to 10000	1000 to 10000	100 to 500
Cc1c(-c2ccc([N+](=O)[O-])cc2)c(=O)[nH]c2cnc3[nH]c(-c4ccc(CN5CCC(S(C)(=O)=O)CC5)cc4)cc3c12 [Example 18, 9-Methyl-2-(4-((4-(methylsulfonyl)piperidin-1-yl)methyl)phenyl)-8-(4-nitrophenyl)-3,6-dihydro-7H-pyrrolo[3,2-f][1,7]naphthyridin-7-one]	1000 to 10000	1000 to 10000	1000 to 10000	500 to 1000
CN(C)C(=O)c1ccc(-c2c(-c3cnn(C)c3)[nH]c3ncc4c(cc(NC5CCC(CC#N)CC5)c(=O)n4C)c23)cc1 (stereo not drawn) [Example 38, 4-(8-((4-(cyanomethyl)cyclohexyl)amino)-6-methyl-2-(1-methyl-1H-pyrazol-4-yl)-7-oxo-6,7-dihydro-3H-pyrrolo[3,2-f][1,7]naphthyridin-1-yl)-N,N-dimethylbenzamide]	≤ 100	100 to 500	≤ 100	≤ 100
COc1ccc(-c2c(-c3cnn(C)c3)[nH]c3ncc4c(cc(C(=O)N(C)C)c(=O)n4C)c23)cc1 [Example 42, 1-(4-Methoxyphenyl)-N,N,6-trimethyl-2-(1-methyl-1H-pyrazol-4-yl)-7-oxo-6,7-dihydro-3H-pyrrolo[3,2-f][1,7]naphthyridine-8-carboxamide]	≤ 100	1000 to 10000	1000 to 10000	≤ 100
Cc1cc(-c2c(C3CCOCC3)c3c4cc(-c5ccc(CN6CCC(S(C)(=O)=O)CC6)cc5)[nH]c4ncc3n(C)c2=O)on1 [Example 21, 6-Methyl-8-(3-methylisoxazol-5-yl)-2-(4-((4-(methylsulfonyl)piperidin-1-yl)methyl)phenyl)-9-(tetrahydro-2H-pyran-4-yl)-3,6-dihydro-7H-pyrrolo[3,2-f][1,7]naphthyridin-7-one]	≤ 100	100 to 500	100 to 500	≤ 100
Cn1nccc1-c1cc2c(cnc3[nH]c(-c4ccc(CN5CCC(S(C)(=O)=O)CC5)cc4)cc32)[nH]c1=O [Example 4, 8-(1-Methyl-1H-pyrazol-5-yl)-2-(4-((4-(methylsulfonyl)piperidin-1-yl)methyl)phenyl)-3,6-dihydro-7H-pyrrolo[3,2-f][1,7]naphthyridin-7-one]	1000 to 10000	1000 to 10000	1000 to 10000	1000 to 10000
Cc1c(-c2ccc(C(=O)O)cc2)c(=O)n(C)c2cnc3[nH]c(-c4ccc(CN5CCC(S(C)(=O)=O)CC5)cc4)cc3c12 [Example 8, 4-(6,9-Dimethyl-2-(4-((4-(methylsulfonyl)piperidin-1-yl)methyl)phenyl)-7-oxo-6,7-dihydro-3H-pyrrolo[3,2-f][1,7]naphthyridin-8-yl)benzoic acid]	≤ 100	100 to 500	100 to 500	≤ 100
